Measurements reported in patent publication US20230399289A1, “ITACONIC ACID DERIVATIVES” (Sitryx Therapeutics Limited, priority 2020, published 2023).
Where a name gives a salt, the structure may show the parent alone.

Legend:
[1] = tested on: IL-1β cytokine output from THP-1 cells; assay: THP-1 AlphaLISA IL-1β cytokine assay; assay type: cell-based; conditions: Homo sapiens, THP-1, differentiated THP-1 cells, LPS 24 hr then Nigericin 1 hour
Experimental: (§1) Measuring Inhibitory Effects on IL-1β and IL-6 Cytokine Output from THP-1s
(§2) The cytokine inhibition profiles of compounds of formula (I) were determined in a differentiated THP-1 cell assay. All assays were performed in RPMI-1640 growth medium (Gibco), supplemented with 10% fetal bovine serum (FBS; Gibco), 1% penicillin-streptomycin and 1% sodium pyruvate unless specified otherwise. The IL-1β and IL-6 cytokine inhibition assays were each run in a background of differentiated THP-1 cells as described below. All reagents described were from Sigma-Aldrich unless specified otherwise. Compounds were prepared as 10 mM DMSO stocks.
(§3) THP-1 cells were expanded as a suspension up to 80% confluence in appropriate growth medium. Cells were harvested, suspended, and treated with an appropriate concentration of phorbol 12-myristate 13-acetate (PMA) over a 72 hr period (37° C./5% CO2).
(§4) Following 72 hrs of THP-1 cell incubation, cellular medium was removed and replaced with fresh growth media containing 1% of FBS. Working concentrations of compounds were prepared separately in 10% FBS treated growth medium and pre-incubated with the cells for 30 minutes (37° C./5% CO2). Following the 30 minute compound pre-incubation, THP-1s were treated with an appropriate concentration of LPS and the THP-1s were subsequently incubated for a 24 hr period (37° C./5% CO2). An appropriate final concentration of Nigericin was then dispensed into the THP-1 plates and incubated for 1 hour (37° C./5% CO2) before THP-1 supernatants were harvested and collected in separate polypropylene 96-well holding plates.
(§5) Reagents from each of the […] and IL-6 commercial kits (Perkin Elmer) were prepared and run according to the manufacturer's instructions. Subsequently, fluorescence signal detection in a microplate reader was measured (EnVision® Multilabel Reader, Perkin Elmer).
(§6) Percentage inhibition was calculated per cytokine by normalising the sample data to the high and low controls used within each plate (+/−LPS respectively). Percentage inhibition was then plotted against compound concentration and the 50% inhibitory concentration (IC50) was determined from the resultant concentration-response curve.

hepatocytes [2] = assay: Hepatocyte stability assay, human; assay type: in vitro ADME; conditions: 10 μM compound, 0.5×10^6 cells/mL, 60 min
Excerpt: (§7) Defrosted cryo-preserved hepatocytes (viability>70%) may be used to determine the metabolic stability of a compound via calculation of intrinsic clearance (Clint; a measure of the removal of a compound from the liver in the absence of blood flow and cell binding). Clearance data are particularly important for in vitro work as they can be used in combination with in vivo data to predict the half-life and oral bioavailability of a drug.
(§8) The metabolic stability in hepatocytes assay involves a time-dependent reaction using both positive and negative controls. The cells were pre-incubated at 37° C. and spiked with test compound (and positive control); samples were taken at pre-determined time intervals and analysed to monitor the change in concentration of the initial drug compound over 60 minutes. A buffer incubation reaction (with no hepatocytes present) acted as a negative control and two cocktail solutions, containing compounds with known high and low clearance values (verapamil/7-hydroxycoumarin and propranolol/diltiazem), acted as positive controls. • 1. The assay was run with a cell concentration of 0.5×10^6 cells/mL in Leibovitz buffer. • 2. All compounds and controls were run in duplicate. • 3. Compound concentration was 10 μM. • 4. All compounds and controls were incubated with both cells and buffer to show turnover was due to hepatic metabolism. • 5. All wells on the incubation plate had 326.7 μL of either cells or buffer added. • 6. Prior to assay, cell and buffer-only incubation plates were preincubated for 10 mins at 37° C. • 7. The assay was initiated by adding compounds, 3.3 μL of 1 mM in 10% DMSO-90% Buffer; final DMSO concentration is 0.1%. • 8. Samples were taken at regular timepoints (0, 5, 10, 20, 40, 60 min) until 60 mins. • 9. Sample volume was 40 μL and was added to 160 μL of crash solvent (acetonitrile with internal standard) and stored on ice. • 10. At the end of the assay, the crash plates were centrifuged at 3500 rpm for 20 mins at 4° C. • 11. 80 μL of clear supernatant was removed and mixed with 80 μL of deionised water before being analysed by LC-MS/MS.
(§9) Raw LC-MS/MS data was exported to, and analysed in, Microsoft Excel for determination of intrinsic clearance. The percentage remaining of a compound was monitored using the peak area of the initial concentration as 100%. Intrinsic clearance and half-life values were calculated using a graph of the natural log of percentage remaining versus the time of reaction in minutes. Half-life (min) and intrinsic clearance (Clint in μL min^−1 10^−6 cells) values were calculated using the gradient of the graph (the elimination rate constant, k) and Equations 1 and 2.

[3] = Hepatocyte stability assay, human; assay type: in vitro ADME; conditions: cryopreserved hepatocytes, 10 μM compound, 0.5×10^6 cells/mL, 60 min, read-out: T½
Excerpt: as §7, §8, §9

hepatocytes [4] = assay: Hepatocyte stability assay, mouse; assay type: in vitro ADME; conditions: 10 μM compound, 0.5×10^6 cells/mL, 60 min
Excerpt: as §7, §8, §9

[5] = Hepatocyte stability assay, mouse; assay type: in vitro ADME; conditions: cryopreserved hepatocytes, 10 μM compound, 0.5×10^6 cells/mL, 60 min, read-out: T½
Excerpt: as §7, §8, §9

[6] = tested on: NRF2 (nuclear factor erythroid 2-related factor 2); assay: NRF2 +/−GSH activation assay (DiscoverX PathHunter NRF2 translocation kit, U2OS cells); assay type: cell-based; conditions: Homo sapiens; for Emax: U2OS, normalised to dimethyl fumarate high control; for EC50: U2OS PathHunter cells, 6 hours
[7] = tested on: IL-6 cytokine output from THP-1 cells; assay: THP-1 AlphaLISA IL-6 cytokine assay; assay type: cell-based; conditions: Homo sapiens, THP-1, differentiated THP-1 cells, LPS 24 hr then Nigericin 1 hour
Experimental: as §1, §2, §3, §4, §5, §6

[8] = +GSH, 30 minute compound-GSH pre-incubation

SMILES	IC50 [1] [µM]	CIint (hepatocytes [2]) [μL min^−1 10^−6 cells]	CIint (hepatocytes [4]) [μL min^−1 10^−6 cells]	IC50 [7] [µM]	other results
C=C(CC(=O)OC1(c2cc(F)c(F)c(F)c2)CCC1)C(=O)OCC(=O)O [Example 14, 2-((2-methylene-4-oxo-4-(1-(3,4,5-trifluorophenyl)cyclobutoxy)butanoyl)oxy)acetic acid]	19.9	–	–	–	–
C=C(CC(=O)OC1(c2cc(Cl)cc(C(F)(F)F)c2)CCC1)C(=O)OCC(=O)O [Example 15, 2-((4-(1-(3-chloro-5-(trifluoromethyl)phenyl)cyclobutoxy)-2-methylene-4-oxobutanoyl)oxy)acetic acid]	8.6	–	–	–	–
C=C(CC(=O)OC1(c2ccc(C(F)(F)F)c(Cl)c2)CCC1)C(=O)OCC(=O)O [Example 16, 2-((4-(1-(3-chloro-4-(trifluoromethyl)phenyl)cyclobutoxy)-2-methylene-4-oxobutanoyl)oxy)acetic acid]	4.9	7	61	–	half-life at 10 μM [3]: 209 min; half-life at 10 μM [5]: 25 min
C=C(CC(=O)OC1(c2ccc(C(F)(F)F)cc2)CCC1)C(=O)O[C@@H](CC(=O)O)C(F)(F)F [Example 21, (S)-4,4,4-trifluoro-3-((2-methylene-4-oxo-4-(1-(4-(trifluoromethyl)phenyl)cyclobutoxy)butanoyl)oxy)butanoic acid]	1	–	–	0.9	Emax ([6]; +GSH): 53%; Emax ([6]; −GSH): 170%; EC50 [6, 8]: 5.7 µM; EC50 ([6]; −GSH): 1.7 µM
C=C(CC(=O)OC1(c2ccc(C(F)(F)F)cc2)CC(F)(F)C1)C(=O)OCC(=O)O [Example 31, 2-((4-(3,3-difluoro-1-(4-(trifluoromethyl)phenyl)cyclobutoxy)-2-methylene-4-oxobutanoyl)oxy)acetic acid]	14.4	–	–	16.5	Emax ([6]; +GSH): 108%; Emax ([6]; −GSH): 182%; EC50 [6, 8]: 30.8 µM; EC50 ([6]; −GSH): 21.7 µM
C=C(CC(=O)OC1(Cc2ccc(C(F)(F)F)cc2)CC1)C(=O)OCC(=O)O [Example 27, 2-((2-methylene-4-oxo-4-(1-(4-(trifluoromethyl)benzyl)cyclopropoxy)butanoyl)oxy)acetic acid]	16.4	–	–	14.1	–
C=C(CC(=O)OC1(c2ccc(C(F)(F)F)cc2)CCCC1)C(=O)OCC(=O)O [Example 25, 2-((2-methylene-4-oxo-4-((1-(4-(trifluoromethyl)phenyl)cyclopentyl)oxy)butanoyl)oxy)acetic acid]	17.4	–	–	15.9	–
C=C(CC(=O)OC)C(=O)OC [dimethyl itaconate, reference compound]	> 100	–	–	> 100	–
C=C(CC(=O)OC1(c2cc(Cl)c(OC)c(Cl)c2)CCC1)C(=O)OCC(=O)O [Example 18, 2-((4-(1-(3,5-dichloro-4-methoxyphenyl)cyclobutoxy)-2-methylene-4-oxobutanoyl)oxy)acetic acid]	9.9	13	58	–	half-life at 10 μM [3]: 109 min; half-life at 10 μM [5]: 26 min
C=C(CC(=O)OC1(c2cccc(Cl)c2Cl)CCC1)C(=O)OCC(=O)O [Example 7, 2-((4-(1-(2,3-dichlorophenyl)cyclobutoxy)-2-methylene-4-oxobutanoyl)oxy)acetic acid]	17.4	10	107	–	half-life at 10 μM [3]: 151 min; half-life at 10 μM [5]: 18 min
C=C(CC(=O)OCCCCCCCC)C(=O)O [4-octyl itaconate, reference compound]	–	401	351	–	T½ (hepatocytes [2]): 4 min; T½ (hepatocytes [4]): 4 min
C=C(CC(=O)OC1(Cc2ccc(Cl)cc2)CCC1)C(=O)OCC(=O)O [Example 24, 2-((4-(1-(4-chlorobenzyl)cyclobutoxy)-2-methylene-4-oxobutanoyl)oxy)acetic acid]	14.5	–	–	11.3	Emax ([6]; +GSH): 119%; Emax ([6]; −GSH): 194%; EC50 [6, 8]: 28.3 µM; EC50 ([6]; −GSH): 29.6 µM
C=C(CC(=O)OC1(c2ccc(C(F)(F)F)cc2)COC1)C(=O)OCC(=O)O [Example 29, 2-((2-methylene-4-oxo-4-((3-(4-(trifluoromethyl)phenyl)oxetan-3-yl)oxy)butanoyl)oxy)acetic acid]	43.2	–	–	45.2	–
C=C(CC(=O)OC1(c2cc(Cl)c(F)c(Cl)c2)CCC1)C(=O)OCC(=O)O [Example 17, 2-((4-(1-(3,5-dichloro-4-fluorophenyl)cyclobutoxy)-2-methylene-4-oxobutanoyl)oxy)acetic acid]	4.9	8	73	–	half-life at 10 μM [3]: 188 min; half-life at 10 μM [5]: 21 min
C=C(CC(=O)OC1(C#Cc2ccc(C(F)(F)F)cc2)CCC1)C(=O)OCC(=O)O [Example 28, 2-((2-methylene-4-oxo-4-(1-((4-(trifluoromethyl)phenyl)ethynyl)cyclobutoxy)butanoyl)oxy)acetic acid]	11.3	–	–	3.3	–
C=C(CC(=O)OC1(c2ccc(C(F)(F)F)cc2)CCC1)C(=O)O[C@H](CC(=O)O)C(F)(F)F [Example 23, (R)-4,4,4-trifluoro-3-((2-methylene-4-oxo-4-(1-(4-(trifluoromethyl)phenyl)cyclobutoxy)butanoyl)oxy)butanoic acid]	1.5	–	–	1.2	Emax ([6]; +GSH): 54%; Emax ([6]; −GSH): 141%; EC50 [6, 8]: 5.3 µM; EC50 ([6]; −GSH): 2.3 µM
COC(=O)/C=C/C(=O)OC [dimethyl fumarate, reference compound]	–	–	–	–	Emax ([6]; +GSH): 19%; Emax ([6]; −GSH): 100%; EC50 [6, 8]: > 100 µM; EC50 ([6]; −GSH): 6 µM
C=C(CC(=O)OC1(c2ccc(C)c(Cl)c2)CCC1)C(=O)OCC(=O)O [Example 20, 2-((4-(1-(3-chloro-4-methylphenyl)cyclobutoxy)-2-methylene-4-oxobutanoyl)oxy)acetic acid]	8.7	15	77	–	half-life at 10 μM [3]: 84 min; half-life at 10 μM [5]: 26 min
C=C(CC(=O)OC1(c2ccc(-c3ccc(F)cc3)cc2)CCC1)C(=O)OCC(=O)O [Example 26, 2-((4-(1-(4′-fluoro-[1,1′-biphenyl]-4-yl)cyclobutoxy)-2-methylene-4-oxobutanoyl)oxy)acetic acid]	46.9	–	–	3.9	–
